Experimental data as given in the NIST ThermoML archive (doi:10.1021/je100315g).

Assay: xn = mol fraction of the nth substance listed
Conditions: 101 kPa, Liquid

CCCC[n+]1ccn(C)c1.O=S(=O)([N-]S(=O)(=O)C(F)(F)F)C(F)(F)F + C[S+](C)[O-]
mass density [kg/m3]
Conditions	293.15 K	298.15 K	303.13 K	308.15 K	313.15 K
x1 = 0.1025	1202.34	1197.39	1192.43	1187.49	1182.55
x1 = 0.196	1263.15	1258.21	1253.26	1248.31	1243.37
x1 = 0.2358	1283.38	1278.4	1273.45	1268.49	1263.51
x1 = 0.3241	1319.45	1314.52	1309.58	1304.64	1299.72
x1 = 0.4205	1349.72	1344.81	1339.88	1334.99	1330.05
x1 = 0.4785	1364.67	1359.72	1354.8	1349.87	1344.87
x1 = 0.5179	1373.61	1368.67	1363.77	1358.86	1353.93
x1 = 0.5911	1388.28	1383.33	1378.5	1373.59	1368.72
x1 = 0.6581	1400.07	1395.16	1390.25	1385.42	1380.54
x1 = 0.8232	1423.06	1418.22	1413.34	1408.48	1403.6
x1 = 1	1441.63	1436.83	1431.98	1427.16	1422.36
